Experimental data reported in patent US20240428951A1, “METHODS AND SYSTEMS FOR PERSONALIZED IN-SILICO HEMATOPOIESIS AND DISEASE/LEUKEMIA SIMULATION FOR TREATMENT SELECTION AND OPTIMIZATION” (GEORGIA TECH RESEARCH CORPORATION, priority 2021, published 2024).

Assays:
[1] = Patient peripheral blood / neutrophil recovery during treatment; assay type: in vivo, human; conditions: one patient, 4 cycles of low-dose treatment (FIG. 10A, 11A)
Source text: FIGS. 10A and 10B show examples of visual representations of dynamic prediction of peripheral blood recovery determined using the method according to embodiments.
FIGS. 11A and 11B show examples of visual representations of retrospective comparisons of dynamic prediction of absolute neutrophils count (lines) determined using the method according to embodiments and patient clinical assessment of daily neutrophils count during treatment (dots).
The patient initially presented with granulocytic dysplasia that delayed neutrophil recovery.

leukemic blasts = assay: Patient leukemia response to treatment (percentage of leukemic blasts in BM, clinical assessments compared with simulation); assay type: in vivo, human; conditions: one patient
Source text: FIGS. 9A and 9B show examples of visual representations of retrospective comparisons of dynamic prediction of the overall percentage of abnormal cells/leukemic blasts (lines) determined using the method according to embodiments and patient clinical assessments (dots).
FIGS. 9A and 9B show examples of visualizations of dynamic prediction of the overall percentage of leukemic blasts. By showing the percentage of overall leukemic blasts (addition of all subclones) in graphs, the leukemic burden in BM can be visualized.

With `Nc1ccn([C@@H]2O[C@H](CO)[C@@H](O)[C@@H]2O)c(=O)n1` [Ara-C, Cytosine Arabinoside] the hematological recovery [1] was “complete hematological recovery”, the treatment outcome (leukemic blasts; 2 cycles of low-dose treatment (FIG. 9A)) was “complete remission” and the leukemic blasts (leukemic blasts; 2 cycles of low-dose treatment (FIG. 9A), bone marrow) was less than 5%. For the same molecule, the treatment outcome (leukemic blasts; 4 cycles of low-dose treatment (FIG. 10A, 11A)) was “complete remission”.
